# According to publication PMC11012124, “Synthesis of Novel Triazine-Based Chalcones and 8,9-dihydro-7H-pyrimido[4,5-b][1,4]diazepines as Potential Leads in the Search of Anticancer, Antibacterial and Antifungal Agents” (International Journal of Molecular Sciences, 2024):
# Columns and labels:
# SF-295 = assay: cells; conditions: Homo sapiens, SF-295, 48 h; for CC50: read-out: LC50
# DU-145 = assay: cells; conditions: Homo sapiens, DU-145, 48 h; for CC50: read-out: LC50
# MDA-MB-231/ATCC = assay: cells; conditions: Homo sapiens, MDA-MB-231, 48 h; for CC50: read-out: LC50
# CCRF-CEM = assay: cells; conditions: Homo sapiens, 48 h; for CC50: read-out: LC50
# HCT-116 = assay: cells; conditions: Homo sapiens, HCT-116, 48 h; for CC50: read-out: LC50
# [1] = Hemolytic activity, spectrophotometric; format: cell-based, human; conditions: human, human red blood cells (huRBC), 5% hematocrit, 200 μg/mL, 37 °C
# UACC-62 = assay: cells; conditions: Homo sapiens, UACC-62, 48 h; for CC50: read-out: LC50
# NCI-H226 = assay: cells; conditions: Homo sapiens, NCI-H226, 48 h; for CC50: read-out: LC50
# UACC-257 = assay: cells; conditions: Homo sapiens, UACC-257, 48 h; for CC50: read-out: LC50
# HS 578T = assay: cells; conditions: Homo sapiens, 48 h; for CC50: read-out: LC50
# MDA-MB-435 = assay: cells; conditions: Homo sapiens, MDA-MB-435, 48 h; for CC50: read-out: LC50
# SF-539 = assay: cells; conditions: Homo sapiens, SF-539, 48 h; for CC50: read-out: LC50, SF-539, 48 h
# ACHN = assay: cells; conditions: Homo sapiens, 48 h; for CC50: read-out: LC50
# LOX IMVI = assay: cells; conditions: Homo sapiens, 48 h; for CC50: read-out: LC50, LOX IMVI, 48 h
# 60 cancer cell lines = assay: NCI-60 one-dose screen (10 μM); format: cell-based; conditions: Homo sapiens; one dose of 10 μM, mean over 60 cancer cell lines; read-out: Mean Growth Percent (MGP)
# Description: Additionally, the mean of the growth percentages (MGP) of each compound against all the 60 cancer cell lines is also reported, which is used as one of the selection criteria to continue with tests at five concentration doses.
# T-47D = assay: cells; conditions: Homo sapiens, T47D, 48 h; for CC50: read-out: LC50
# NCI-H322M = assay: cells; conditions: Homo sapiens, 48 h; for CC50: read-out: LC50
# SF-268 = assay: cells; conditions: Homo sapiens, SF-268, 48 h; for CC50: read-out: LC50
# HOP-62 = assay: cells; conditions: Homo sapiens, HOP-62, 48 h; for CC50: read-out: LC50
# OVCAR-4 = assay: cells; conditions: Homo sapiens, OVCAR-4, 48 h; for CC50: read-out: LC50
# COLO 205 = assay: cells; conditions: Homo sapiens, COLO 205, 48 h; for CC50: read-out: LC50
# SN12C = assay: cells; conditions: Homo sapiens, 48 h; for CC50: read-out: LC50
# OVCAR-3 = assay: cells; conditions: Homo sapiens, OVCAR-3, 48 h; for CC50: read-out: LC50
# OVCAR-8 = assay: cells; conditions: Homo sapiens, OVCAR-8, 48 h; for CC50: read-out: LC50
# HT29 = assay: cells; conditions: Homo sapiens, HT-29, 48 h; for CC50: read-out: LC50
# MOLT-4 = assay: cells; conditions: Homo sapiens, MOLT-4, 48 h
# EKVX = assay: cells; conditions: Homo sapiens, 48 h; for CC50: read-out: LC50
# UO-31 = assay: cells; conditions: Homo sapiens, UO-31, 48 h; for CC50: read-out: LC50
# U251 = assay: cells; conditions: Homo sapiens, U-251, 48 h; for GI50: U251, 48 h; for CC50: read-out: LC50
# MALME-3M = assay: cells; conditions: Homo sapiens, 48 h; for CC50: read-out: LC50
# BT-549 = assay: cells; conditions: Homo sapiens, BT-549, 48 h; for CC50: read-out: LC50
# M14 = assay: cells; conditions: Homo sapiens, M14, 48 h; for CC50: read-out: LC50
# OVCAR-5 = assay: cells; conditions: Homo sapiens, OVCAR-5, 48 h; for CC50: read-out: LC50
# HL-60(TB) = assay: cells; conditions: Homo sapiens, HL-60, 48 h; for CC50: read-out: LC50
# A498 = assay: cells; conditions: Homo sapiens, A498, 48 h; for CC50: read-out: LC50
# PC-3 = assay: cells; conditions: Homo sapiens, PC-3, 48 h; for CC50: read-out: LC50
# MCF7 = assay: cells; conditions: Homo sapiens, MCF7, 48 h; for CC50: read-out: LC50
# RPMI-8226 = assay: cells; conditions: Homo sapiens, RPMI-8226, 48 h; for CC50: read-out: LC50
structure (smiles),measurement,setting,value
COc1cc(/C=C/C(=O)c2cc(OC)c(OC)c(OC)c2)ccc1Oc1nc(Nc2ccc(F)cc2)nc(N(C)C)n1 [21d],GI50,SF-295,1.98 µM
same,CC50,SF-295,19.6 µM
same,GI50,DU-145,3.99 µM
same,CC50,DU-145,67.9 µM
same,GI50,MDA-MB-231/ATCC,1.48 µM
same,CC50,MDA-MB-231/ATCC,8.63 µM
same,GI50,CCRF-CEM,2.19 µM
same,CC50,CCRF-CEM,> 100 µM
same,GI50,HCT-116,1.4 µM
same,CC50,HCT-116,7.24 µM
same,"hemolysis at 24 h, 200 µg/mL",[1],8%
same,GI50,UACC-62,1.41 µM
same,CC50,UACC-62,6.38 µM
same,GI50,NCI-H226,1.44 µM
same,CC50,NCI-H226,7.24 µM
same,GI50,UACC-257,2.83 µM
same,CC50,UACC-257,> 100 µM
same,GI50,HS 578T,2.39 µM
same,CC50,HS 578T,> 100 µM
same,GI50,MDA-MB-435,1.63 µM
same,CC50,MDA-MB-435,7.69 µM
same,GI50,SF-539,1.64 µM
same,CC50,SF-539,5.81 µM
same,GI50,ACHN,2.3 µM
same,CC50,ACHN,50.6 µM
same,GI50,LOX IMVI,0.478 µM
same,CC50,LOX IMVI,4.11 µM
same,activity at 10 µM,60 cancer cell lines,-33.4%
same,GI50,T-47D,1.87 µM
same,CC50,T-47D,> 100 µM
same,GI50,NCI-H322M,2.99 µM
same,CC50,NCI-H322M,> 100 µM
same,GI50,SF-268,3.43 µM
same,CC50,SF-268,> 100 µM
same,GI50,HOP-62,1.83 µM
same,CC50,HOP-62,8.22 µM
same,GI50,OVCAR-4,2.07 µM
same,CC50,OVCAR-4,> 100 µM
same,GI50,COLO 205,4.45 µM
same,CC50,COLO 205,47.5 µM
same,GI50,SN12C,1.23 µM
same,CC50,SN12C,6.04 µM
same,GI50,OVCAR-3,2.57 µM
same,CC50,OVCAR-3,> 100 µM
same,GI50,OVCAR-8,1.55 µM
same,CC50,OVCAR-8,> 100 µM
same,GI50,HT29,1.54 µM
same,CC50,HT29,8.22 µM
same,GI50,MOLT-4,0.472 µM
same,CC50,MOLT-4; read-out: LC50,> 100 µM
same,GI50,EKVX,2.15 µM
same,CC50,EKVX,31.1 µM
same,GI50,UO-31,1.12 µM
same,CC50,UO-31,4.96 µM
same,GI50,U251,0.503 µM
same,CC50,U251,9.59 µM
same,GI50,MALME-3M,1.75 µM
same,CC50,MALME-3M,11.1 µM
same,GI50,BT-549,1.56 µM
same,CC50,BT-549,6.56 µM
same,GI50,M14,2.83 µM
same,CC50,M14,32.8 µM
same,GI50,OVCAR-5,1.48 µM
same,CC50,OVCAR-5,11.6 µM
same,GI50,HL-60(TB),2.21 µM
same,CC50,HL-60(TB),> 100 µM
same,GI50,A498,3.99 µM
same,CC50,A498,38.9 µM
same,GI50,PC-3,2.77 µM
same,CC50,PC-3,> 100 µM
same,GI50,MCF7,1.06 µM
same,CC50,MCF7,67 µM
same,GI50,RPMI-8226,0.751 µM
same,CC50,RPMI-8226,> 100 µM
CN(C)c1nc(NCCNS(=O)(=O)c2ccc(C3=Nc4c(N)nc(N)nc4NC(c4ccc(Cl)cc4)C3)cc2)nc(Nc2ccc(F)cc2)n1 (centres unmarked) [31e],GI50,SF-295,6.2 µM
same,CC50,SF-295,> 100 µM
same,GI50,DU-145,> 100 µM
same,CC50,DU-145,> 100 µM
same,GI50,MDA-MB-231/ATCC,3.73 µM
same,CC50,MDA-MB-231/ATCC,65.7 µM
same,GI50,CCRF-CEM,2.92 µM
same,CC50,CCRF-CEM,> 100 µM
same,GI50,HCT-116,3.77 µM
same,CC50,HCT-116,> 100 µM
same,"hemolysis at 24 h, 200 µg/mL",[1],2.3%
same,GI50,UACC-62,6.46 µM
same,CC50,UACC-62,> 100 µM
same,GI50,NCI-H226,> 100 µM
same,CC50,NCI-H226,> 100 µM
same,GI50,UACC-257,8.07 µM
same,CC50,UACC-257,> 100 µM
same,GI50,HS 578T,7.15 µM
same,CC50,HS 578T,> 100 µM
same,GI50,MDA-MB-435,5.17 µM
same,CC50,MDA-MB-435,> 100 µM
same,GI50,SF-539,3.3 µM
same,CC50,SF-539,> 100 µM
same,GI50,ACHN,> 100 µM
same,CC50,ACHN,> 100 µM
same,GI50,LOX IMVI,1.77 µM
same,CC50,LOX IMVI,3.55 µM
same,activity at 10 µM,60 cancer cell lines,30.8%
same,GI50,T-47D,7.93 µM
same,CC50,T-47D,> 100 µM
same,GI50,NCI-H322M,> 100 µM
same,CC50,NCI-H322M,> 100 µM
same,GI50,SF-268,5.74 µM
same,CC50,SF-268,> 100 µM
same,GI50,HOP-62,> 100 µM
same,CC50,HOP-62,> 100 µM
same,CC50,OVCAR-4,> 100 µM
same,GI50,COLO 205,5.65 µM
same,CC50,COLO 205,25.6 µM
same,GI50,SN12C,7.37 µM
same,CC50,SN12C,> 100 µM
same,GI50,OVCAR-3,7.45 µM
same,CC50,OVCAR-3,> 100 µM
same,GI50,OVCAR-8,> 100 µM
same,CC50,OVCAR-8,> 100 µM
same,GI50,HT29,2.68 µM
same,CC50,HT29,7.54 µM
same,GI50,MOLT-4,2.68 µM
same,GI50,EKVX,5.05 µM
same,CC50,EKVX,> 100 µM
same,GI50,UO-31,> 100 µM
same,CC50,UO-31,> 100 µM
same,GI50,U251,5.14 µM
same,CC50,U251,> 100 µM
same,GI50,MALME-3M,3.86 µM
same,CC50,MALME-3M,19.2 µM
same,GI50,BT-549,3.96 µM
same,CC50,BT-549,28.7 µM
same,GI50,M14,3.15 µM
same,CC50,M14,11.5 µM
same,GI50,OVCAR-5,> 100 µM
same,CC50,OVCAR-5,> 100 µM
same,GI50,HL-60(TB),2.72 µM
same,CC50,HL-60(TB),13.3 µM
same,GI50,A498,58.4 µM
same,CC50,A498,> 100 µM
same,GI50,PC-3,3.44 µM
same,CC50,PC-3,> 100 µM
same,GI50,MCF7,2.89 µM
same,CC50,MCF7,> 100 µM
same,GI50,RPMI-8226,3.19 µM
same,CC50,RPMI-8226,> 100 µM
